According to patent publication US20020037931A1, “Substituted nitrated catechols, their use in the treatment of some central and peripheral nervous system disorders and pharmaceutical compositions containing them” (priority 2000, published 2002):

Legend:
COMT [1] = test: COMT activity (methylation of adrenaline to metanephrine) in rat brain homogenates; assay type: biochemical; settings: rat brain homogenate; test compound 100 nM; means±SEM, n=4-8
COMT [2] = test: COMT activity (methylation of adrenaline to metanephrine) in rat liver homogenates; assay type: biochemical; settings: rat liver homogenate; test compound 3 μM; means±SEM, n=4-8
COMT [3] = target: T1, COMT (Homo sapiens, UniProt P21964); test: COMT activity in intact SK-N-SH cell monolayers; assay type: cell-based; settings: SK-N-SH cells; test compound 100 nM; means±SEM, n=4-8
T1 construct: COMT activity was evaluated in cell monolayers by the ability to methylate adrenaline; host or cells: SK-N-SH cells
T1 sequence (P21964 1-271): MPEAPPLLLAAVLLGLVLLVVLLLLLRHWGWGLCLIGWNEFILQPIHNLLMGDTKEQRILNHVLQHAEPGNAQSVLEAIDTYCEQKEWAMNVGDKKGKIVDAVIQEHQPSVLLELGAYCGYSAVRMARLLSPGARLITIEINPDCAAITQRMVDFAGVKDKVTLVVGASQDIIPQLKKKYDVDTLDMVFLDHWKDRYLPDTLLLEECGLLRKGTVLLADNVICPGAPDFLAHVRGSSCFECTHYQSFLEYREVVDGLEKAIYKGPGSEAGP

| SMILES | COMT activity, Brain (% of control) (COMT [1]) | COMT activity, Liver (% of control) (COMT [2]) | COMT activity, SK-N-SH (% of control) (COMT [3]) |
| --- | --- | --- | --- |
| O=C1c2c(cc(O)c(O)c2[N+](=O)[O-])CC1CN1CCCCC1 (stereo not shown) [Compound 30, 5,6-Dihydroxy-7-nitro-2-piperidin-1-ylmethyl-indan-1-one] | 8 ± 0 % of control | 1.4 ± 0.1 % of control | 17 ± 1 % of control |
| CCCC(=O)Oc1ccc(C(=O)CCc2ccccc2)c([N+](=O)[O-])c1OC(=O)CCC [Compound 19, Butyric acid, 6-butyryloxy-2-nitro-3-(3-phenyl-propionyl)-phenyl ester] | 8 ± 1 % of control | 0.2 ± 0.1 % of control | 0 ± 0 % of control |
| CCOC(=O)Oc1cc(C(=O)c2ccccc2)c(C(=O)c2ccccc2)c([N+](=O)[O-])c1OC(=O)OCC [Compound 23, Carbonic Acid 4,5-Dibenzoyl-2-ethoxycarbonyloxy-3-nitro-phenyl Ester Ethyl Ester] | 10 ± 1 % of control | 2.5 ± 1.2 % of control | 24 ± 1 % of control |
| CCOC(=O)Oc1ccc(C(=O)CCc2ccccc2)c([N+](=O)[O-])c1OC(=O)OCC [Compound 22, Carbonic acid, 2-ethoxycarbonyloxy-3-nitro-4-(3-phenyl-propionyl)-phenyl ester ethyl ester] | 9 ± 0 % of control | 0.3 ± 0.1 % of control | 12 ± 1 % of control |
| COc1ccc(N2CCN(CCC(=O)c3ccc(O)c(O)c3[N+](=O)[O-])CC2)cc1 [Compound 37, 1-(3,4-Dihydroxy-2-nitro-phenyl)-3-[4-(4-methoxy-phenyl)-piperazin-1-yl]-propan-1-one] | 6 ± 0 % of control | 1.7 ± 0.3 % of control | 6 ± 2 % of control |
| CN(C)c1ccc(C=C2Cc3cc(O)c(O)c([N+](=O)[O-])c3C2=O)cc1 [Compound 8, 2-(4-dimethylamino-benzylidene)-5,6-dihydroxy-7-nitro-indan-1-one] | 30 ± 4 % of control | 1.0 ± 0.1 % of control | 48 ± 3 % of control |
| O=C(CCc1ccccc1)c1ccc(O)c(O)c1[N+](=O)[O-] [Compound 14, 1-(3,4-Dihydroxy-2-nitro-phenyl)-3-phenyl-propan-1-one] | 5 ± 1 % of control | 0.3 ± 0.0 % of control | 5 ± 2 % of control |
| CCOC(=O)Oc1ccc(C(=O)Cc2ccccc2)c([N+](=O)[O-])c1OC(=O)OCC [Compound 48, Carbonic acid, 2-ethoxycarbonyloxy-3-nitro-4-phenylacetyl-phenyl ester ethyl ester] | 0 ± 0 % of control | 0.5 ± 0.1 % of control | 7 ± 3 % of control |
| CC(=O)Oc1ccc(C(=O)CCCc2ccccc2)c([N+](=O)[O-])c1OC(C)=O [Compound 49, Acetic acid, 6-acetoxy-2-nitro-3-(4-phenyl-butyryl)-phenyl ester] | 0 ± 0 % of control | 1.4 ± 0.8 % of control | 1 ± 0 % of control |
| O=C1c2ccccc2C(=O)c2c1cc(O)c(O)c2[N+](=O)[O-] [Compound 18, 2,3-Dihydroxy-1-nitro-anthraquinone] | 17 ± 1 % of control | 2.0 ± 0.0 % of control | 70 ± 5 % of control |
| COc1ccc(C=C2CCc3cc(O)c(O)c([N+](=O)[O-])c3C2=O)cc1OC [Compound 4, 2-(3,4-Dimethoxy-benzylidene)-6,7-dihydroxy-8-nitro-3,4-dihydro-2H-naphthalen-1-one] | 20 ± 2 % of control | 2.0 ± 1.0 % of control | 25 ± 1 % of control |
| CC(=O)OC(=Cc1ccccc1)c1ccc(OC(C)=O)c(OC(C)=O)c1[N+](=O)[O-] [Compound 46, Acetic Acid, 2-Acetoxy4-(I-acetoxy-2-phenyl-vinyl)-3-nitro-phenyl Ester] | – | – | 1 ± 1 % of control |
| CC(=O)Oc1ccc(C(=O)C=Cc2ccccc2)c([N+](=O)[O-])c1OC(C)=O [Compound 40, Acetic acid, 6-acetoxy-2-nitro-3-(3-phenyl-acryloyl)-phenyl ester] | 10 ± 0 % of control | 1.6 ± 0.4 % of control | 8 ± 1 % of control |
| CC1CC(C)CN(CCC(=O)c2ccc(O)c(O)c2[N+](=O)[O-])C1 (stereo not shown) [Compound 35, 1-(3,4-Dihydroxy-2-nitro-phenyl)-3-(3,5-dimethyl-piperidin-1-yl)-propan-1-one] | 9 ± 0 % of control | 23. ± 0.3 % of control | 13 ± 1 % of control |
| O=C1C(=Cc2ccc(O)c(O)c2)Cc2cc(O)c(O)c([N+](=O)[O-])c21 [Compound 12, 2-(3,4-dihydroxy-benzylidene)-5,6-dihydroxy-7-nitro-indan-1-one] | 18 ± 1 % of control | 0.6 ± 0.0 % of control | 34 ± 1 % of control |
| O=C1C(=Cc2cc(O)c(O)c([N+](=O)[O-])c2)Cc2cc(O)c(O)c([N+](=O)[O-])c21 [Compound 16, 2-(3,4-Dihydroxy-5-nitro-benzylidene)-5,6-dihydroxy-7-nitro-indan-1-one] | 20 ± 1 % of control | 2.0 ± 0.2 % of control | 92 ± 1 % of control |
| CCCC(=O)Oc1ccc(C(=O)CCCc2ccccc2)c([N+](=O)[O-])c1OC(C)=O [Compound 50, Acetic acid, 6-butyryloxy-2-nitro-3-(4-phenyl-butyryl)-phenyl ester] | 0 ± 0 % of control | 0.6 ± 0.5 % of control | 2 ± 1 % of control |
| O=C(CCN1CCCC1)c1ccc(O)c(O)c1[N+](=O)[O-] [Compound 28, 1-(3,4-Dihydroxy-2-nitro-phenyl)-3-pyrrolidin-1-yl-propan-1-one] | 14 ± 1 % of control | 2.2 ± 0.2 % of control | 7 ± 0 % of control |
| O=C(CCN1CCN(c2cccc(C(F)(F)F)c2)CC1)c1ccc(O)c(O)c1[N+](=O)[O-] [Compound 38, 1-(3,4-Dihydroxy-2-nitro-phenyl)-3-[4-(3-trifluoromethyl-phenyl)-piperazin-1-yl]-propan-1-one] | 7 ± 0 % of control | 11.2 ± 1.5 % of control | 6 ± 1 % of control |
| O=C(CCN1CCOCC1)c1ccc(O)c(O)c1[N+](=O)[O-] [Compound 26, 1-(3,4-dihydroxy-2-nitro-phenyl)-3-morpholin4-yl-propan-1-one] | 9 ± 0 % of control | 0.9 ± 0.1 % of control | 12 ± 1 % of control |
| O=[N+]([O-])c1c(O)c(O)cc2c1C(=NO)CC2 [Compound 6, 5,6-Dihydroxy-7-nitro-indan-1-one Oxime] | 33 ± 1 % of control | 1.77 ± 0.1 % of control | 39 ± 3 % of control |
| O=C1c2c(cc(O)c(O)c2[N+](=O)[O-])CC1CN1CCN(c2cccc(C(F)(F)F)c2)CC1 (stereo not shown) [Compound 43, 5,6-Dihydroxy-7-nitro-2-[4-(3-trifluoromethyl-phenyl)-piperazin-1-ylmethyl]-indan-1-one] | 10 ± 1 % of control | 0.9 ± 0.2 % of control | 19 ± 7 % of control |
| O=C1C(=Cc2ccc(O)c(O)c2)CCc2cc(O)c(O)c([N+](=O)[O-])c21 [Compound 13, 2-(3,4-Dihydroxy-benzylidene)-6,7-dihydroxy-8-nitro-3,4-dihydro-2H-naphthalen-1-one] | 27 ± 1 % of control | 2.3 ± 0.1 % of control | 46 ± 1 % of control |
| O=C(CCCc1ccccc1)c1ccc(O)c(O)c1[N+](=O)[O-] [Compound 15, 1-(3,4-dihydroxy-2-nitro-phenyl)4-phenyl-butan-1-one] | 7 ± 2 % of control | 0.5 ± 0.0 % of control | 13 ± 4 % of control |
| O=C(CCN1CCCCC1)c1ccc(O)c(O)c1[N+](=O)[O-] [Compound 27, 1-(3,4-Dihydroxy-2-nitro-phenyl)-3-piperidin-1-yl-propan-1-one] | 15 ± 1 % of control | 2.4 ± 0.2 % of control | 5 ± 1 % of control |
| O=C(CN1CCOCC1)c1ccc(O)c(O)c1[N+](=O)[O-] [Compound 42, 1-(3,4-Dihydroxy-2-nitro-phenyl)-2-morpholin-4-yl-ethanone] | 13 ± 0 % of control | 0.8 ± 0.2 % of control | 27 ± 1 % of control |
